Assay results taken from ChEMBL document CHEMBL1134436, “Significance of hydrogen bonding at the S(1)' subsite of calpain I” (Bioorg Med Chem Lett, 2001).

These molecules were tested against T1, Calpain-1 catalytic subunit (Sus scrofa, UniProt P35750) (assay: Binding affinity was evaluated against porcine erythrocyte Calpain 1 at the S1 subsite of the enzyme).
T1 sequence (P35750 whole entry): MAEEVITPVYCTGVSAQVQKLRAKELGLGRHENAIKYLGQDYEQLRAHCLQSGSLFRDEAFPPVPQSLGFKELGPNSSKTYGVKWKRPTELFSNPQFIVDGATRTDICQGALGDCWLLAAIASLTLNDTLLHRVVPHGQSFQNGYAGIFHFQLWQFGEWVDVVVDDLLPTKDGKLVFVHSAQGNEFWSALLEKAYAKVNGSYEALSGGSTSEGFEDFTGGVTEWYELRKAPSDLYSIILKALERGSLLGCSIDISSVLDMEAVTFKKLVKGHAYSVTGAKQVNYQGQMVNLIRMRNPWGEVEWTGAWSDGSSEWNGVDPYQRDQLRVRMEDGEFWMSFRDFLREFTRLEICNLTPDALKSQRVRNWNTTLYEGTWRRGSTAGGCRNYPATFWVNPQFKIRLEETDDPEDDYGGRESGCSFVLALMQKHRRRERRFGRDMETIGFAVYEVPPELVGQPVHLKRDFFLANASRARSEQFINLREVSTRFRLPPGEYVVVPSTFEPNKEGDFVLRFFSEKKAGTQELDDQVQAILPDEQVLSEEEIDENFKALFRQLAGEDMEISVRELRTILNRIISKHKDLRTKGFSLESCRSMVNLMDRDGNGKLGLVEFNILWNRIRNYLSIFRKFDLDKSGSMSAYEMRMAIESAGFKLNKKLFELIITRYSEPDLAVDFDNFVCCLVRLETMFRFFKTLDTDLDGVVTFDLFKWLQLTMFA

Q: With CCN(CC)C(=O)C(=O)[C@H](Cc1ccccc1)NC(=O)[C@H](CC(C)C)NC(=O)OCc1ccccc1 as the molecule, how does the Ki read?
A: 76000 nM

Q: For CCON(C)C(=O)C(=O)[C@H](Cc1ccccc1)NC(=O)[C@H](CC(C)C)NC(=O)OCc1ccccc1, which Ki is on record?
A: 750 nM

Q: How did the Ki turn out when CCONC(=O)C(=O)[C@H](Cc1ccccc1)NC(=O)[C@H](CC(C)C)NC(=O)OCc1ccccc1 was run?
A: 62 nM

Q: CCCNC(=O)C(=O)[C@H](Cc1ccccc1)NC(=O)[C@H](CC(C)C)NC(=O)OCc1ccccc1 was tested. Which Ki did it give?
A: 107 nM

Q: CC(C)C[C@H](NC(=O)OCc1ccccc1)C(=O)N[C@@H](Cc1ccccc1)C(=O)C(=O)N(C)OCc1ccccc1 was tested. Which Ki did it give?
A: 673 nM

Q: With CCNC(=O)C(=O)[C@H](Cc1ccccc1)NC(=O)[C@H](CC(C)C)NC(=O)OCc1ccccc1 as the molecule, how does the Ki read?
A: 200 nM

Q: With CC(C)C[C@H](NC(=O)OCc1ccccc1)C(=O)N[C@@H](Cc1ccccc1)C(=O)C(=O)NCCc1ccccc1 as the molecule, how does the Ki read?
A: 72 nM

Q: Which Ki does the source give for CC(C)C[C@H](NC(=O)OCc1ccccc1)C(=O)N[C@@H](Cc1ccccc1)C(=O)C(=O)NOCc1ccccc1 here?
A: 45 nM

Q: With CCN(OCc1ccccc1)C(=O)C(=O)[C@H](Cc1ccccc1)NC(=O)[C@H](CC(C)C)NC(=O)OCc1ccccc1 as the molecule, how does the Ki read?
A: 28000 nM
